According to article PMC3849192, “A Simple Method for Assessing Free Brain/Free Plasma Ratios Using an In Vitro Model of the Blood Brain Barrier” (PLoS ONE, 2013):
Like-named read-outs stand apart in the source and are kept apart here.

Assays:
[1] = Fraction unbound brain (fu,br), brain slice method
Experimental: Rats (male Sprague-Dawley) were decapitated under isoflurane anesthesia and the brains were removed carefully and immersed in ice-cold oxygenated physiological buffer at pH7.4. A 6 mm coronal section was cut with a razor and mounted with cyanoacrylate glue onto the tray of the microslicer (DTK-Zero 1 Microslicer, Dosak) after which six to eight 300 µm coronal slices from striatal areas were prepared. […] The compounds were dissolved at 1 µM in the buffer and the solution was incubated with the slice for 5 h.
After 5 h, the brain slices were weighed and homogenized in 9 volumes (w/v) of ECF buffer with a sonicator (SONICS VCX 500 and VCX 130). The slice homogenates in ECF buffer were stored at −20°C prior to analysis. The concentrations of the test compound in the brain slice homogenate and in the ECF buffer was determined by LC-MS/MS.
The unbound volume of distribution Vu,brain, or free fraction fu,brain was calculated according to the following equations: [drawing 1] [drawing 2] where Cslice, CECF and V0 are amount of drug in the slice, the drug concentration in the ECF (representing the drug concentration in the brain ECF, i.e. the free concentration), and the water adhesion of the brain slice. V0 has been estimated using ^14C -inulin in a separate experiment in which brain slices were incubated for 1, 2, and 4 min. V0 was obtained from brain slice uptake – inulin time profile (apparent zero-time intercept).

[2] = test system: in vitro BBB model (co-culture of bovine brain capillary endothelial cells and rat glial cells); experiment: In vitro BBB co-culture model, Cu,br/Cu,pl ratio
Experimental: Figure 1 Schematic diagram of the experimental protocol. After 12 days of coculture in cell culture medium, both compartments of the in vitro BBB model consisting of a coculture of brain capillary endothlial cells and rat primary glial cells were filled with Hepes-buffered Ringer’s solution and the compounds dissolved at 2 µM were added in the luminal compartment (i.e donor). The presence of glial cells in the abluminal compartment was used to reproduce the non specific binding to brain tisssue within the brain prenchyma in vivo. After 1 hour, aliquots were taken from both compartments. In vitro Cu,br/Cu,pl at 1 h were calculated by dividing the concentration in the abluminal compartment (∼Cu,br) by the concentration in the luminal compartment (∼Cu,pl) at 1 h. The experimental data at 1 h were computed using the blue-norna steady-state calculator to generate the in vitro steady-state Cu,br/Cu,pl.
One hour after the addition of compounds dissolved at 2 µM in the luminal (i.e upper) compartment, aliquots were taken from both compartments previously filled with Hepes-buffered Ringer’s solution at the beginning of the experiment. […] The concentrations in both compartments of the in vitro assay after 1 h were computed using […] blue-norna.com to generate the in vitro steady-state Cu,br/Cu,pl.
The method of Dehouck et al. was used with minor modifications (Fig. 1). Bovine brain endothelial cells isolated from capillary fragments were cocultured with primary mixed glial cells from newborn Sprague–Dawley rats. The glial cells were isolated according to the method of Booher and Sensenbrenner and cultured for 3 weeks, plated on the bottom of cell culture clusters containing six wells each. The endothelial cells were seeded onto collagen-coated polycarbonate cell culture inserts (4.7 cm^2) (Corning Incorp. NY, USA), which were placed in the wells containing glial cells. The medium used for the coculture was Dulbecco’s modified Eagle’s medium supplemented with 10% calf serum, 10% horse serum, 2 mmol/L glutamine, 50 mg/L gentamicin and 1 µg/L basic fibroblast growth factor (Sigma). The medium was changed every second day. Experiments were usually initiated after 12 days of co-culture.
To monitor the integrity of the endothelial cell monolayer, the marker molecule [^14C] sucrose was added to the solution at a concentration of 0.05 µCi/ml. At the start of the transport experiments, buffered Ringer’s solution (pH = 7.4) was added to wells with glial cells. Inserts with brain endothelial cells were placed in these wells and drug solutions at 2 µM were added to the donor compartment. The plates were incubated for 1 h in a polymix shaker at 37°C with a low shaking velocity. Aliquots were taken from the donor compartment in the beginning and at the end of the experiments. The receiver compartments were sampled at the end of the experiments.
The amount of radiotracer in the abluminal compartment was measured in a liquid scintillation analyser (Packard Instrument Company, Meriden, USA). […] The concentrations of the test compound in all samples were analysed by MS/MS.
The mean free brain/plasma ratios were calculated from three individual experiments. One hour ratios were calculated by dividing the drug concentration in the receiver compartment by the free drug concentration in the donor compartment after 1 h. The experimental data at one hour (i.e concentration in both compartment at the beginning of the experiment and after 1 h) were computed using the blue-norna® steady-state calculator (www.blue-norna.com) to predict the in vivo steady-state Cu,br/Cu,pl ratios. For further details on this calculation method see file S1.
The in vivo steady-state Cu,br/Cu,pl were predicted from the in vitro experimental data collected after one hour according to the following equation: […]
Cdonor, t and Creceiver, t are the concentration of drug in the donor and receiver chambers at time t.

[3] = Fraction unbound brain (fu,br), brain homogenate equilibrium dialysis
Experimental: The degree of brain binding was assessed by equilibrium dialysis. Brain homogenate (10%) was spiked with test compound at 1 µM in triplicate. […] The plate was then placed in a shaker/incubator to equilibrate for 18 hrs at 37°C. […] After the addition of 50 µl of buffer to the brain homogenate samples, 150 µl of acetonitrile was added to each sample. Finally, 50 µl of water was added to all buffer and brain homogenate samples. The plates were centrifuged and the supernatant analyzed by LC-MS/MS.

[4] = rat brain slices 300 µm, 1 µM, 5 h incubation
[5] = 2 µM in luminal compartment, abluminal/luminal concentration at 1 h
[6] = steady-state ratio computed from 1 h data with the blue-norna steady-state calculator
[7] = brain homogenate (10%), 1 µM, equilibrium dialysis 18 hrs at 37°C

Structure (SMILES) | fubrain (slice) Mean [1, 4] | In vitro Cu,br/Cu,pl Mean 1 h [2, 5] | In vitro Cu,br/Cu,pl Mean steady-state [2, 6] | fubrain (homog.) Mean [3, 7] | fubrain (slice) Mean ([1]; male, Sprague-Dawley, rat, 5 h, 1 µM) | In vitro Cu,br/Cu,pl Mean steady-state ([2]; bovine / rat, 2 µM, pH 7.4) | In vitro Cu,br/Cu,pl Mean 1 h ([2]; bovine / rat, 1 h, 2 µM, pH 7.4) | fubrain (homog.) Mean ([3]; 18 h, 1 µM) | fubrain (slice) Mean ([1]; male, Sprague-Dawley, rat) | fubrain (homog.) Mean [3]
CN(C)CCC=C1c2ccccc2CCc2ccccc21 [Amitriptyline] | 0.0060 | 0.07 | 0.59 | 0.0090 |  |  |  |  |  | 
NCC(CC(=O)O)c1ccc(Cl)cc1 (stereo not drawn) [Baclofen] | 0.5800 | 0.05 | 0.06 | 0.5000 |  |  |  |  |  | 
Cn1c(=O)c2c(ncn2C)n(C)c1=O [Caffeine] | 0.7100 | 0.34 | 0.55 | 0.5000 |  |  |  |  |  | 
NC(=O)N1c2ccccc2C=Cc2ccccc21 [Carbamazepine] | 0.2000 | 0.25 | 0.31 | 0.1160 |  |  |  |  |  | 
CCCC(C)(COC(N)=O)COC(=O)NC(C)C (stereo not drawn) [Carisoprodol] | 0.5600 | 0.31 | 0.61 | 0.2020 |  |  |  |  |  | 
CN(C)CCCN1c2ccccc2Sc2ccc(Cl)cc21 [Chlorpromazine] | 0.0032 | 0.06 | 0.69 | 0.0008 |  |  |  |  |  | 
CNCCC(Oc1ccc(C(F)(F)F)cc1)c1ccccc1 (stereo not drawn) [Fluoxetine] | 0.0027 | 0.10 | 0.96 | 0.0023 |  |  |  |  |  | 
NCC1(CC(=O)O)CCCCC1 [Gabapentin] | 0.2400 | 0.06 | 0.14 | 0.7820 |  |  |  |  |  | 
O=C(CCCN1CCC(O)(c2ccc(Cl)cc2)CC1)c1ccc(F)cc1 [Haloperidol] | 0.0140 | 0.09 | 0.70 | 0.0071 |  |  |  |  |  | 
OCCOCCN1CCN(C(c2ccccc2)c2ccc(Cl)cc2)CC1 (stereo not drawn) [Hydroxyzine] | 0.0170 | 0.05 | 0.47 | 0.0100 |  |  |  |  |  | 
CC(C)(C)NC(=O)[C@@H]1CN(Cc2cccnc2)CCN1C[C@@H](O)C[C@@H](Cc1ccccc1)C(=O)N[C@H]1c2ccccc2C[C@H]1O [Indinavir] |  | 0.04 | 0.10 |  |  |  |  |  |  | 
Nc1nnc(-c2cccc(Cl)c2Cl)c(N)n1 [Lamotrigine] | 0.3600 | 0.27 | 0.43 | 0.2000 |  |  |  |  |  | 
CNCCC=C1c2ccccc2CCc2ccccc21 [Nortriptyline] | 0.0045 | 0.08 | 0.81 | 0.0046 |  |  |  |  |  | 
O=C1NC(=O)C(c2ccccc2)(c2ccccc2)N1 [Phenytoin] | 0.1200 | 0.22 | 0.44 | 0.0800 |  |  |  |  |  | 
CCN1CCCC1CNC(=O)c1cc(S(N)(=O)=O)ccc1OC (stereo not drawn) [Sulpiride] | 0.4400 | 0.05 | 0.09 | 0.6000 |  |  |  |  |  | 
CNS(=O)(=O)Cc1ccc2[nH]cc(CCN(C)C)c2c1 [Sumatriptan] | 0.6100 | 0.05 | 0.05 | 0.4000 |  |  |  |  |  | 
Nc1c2c(nc3ccccc13)CCCC2 [Tacrine] |  |  |  |  | 0.1200 | 0.58 | 0.23 | 0.1200 |  | 
CSc1ccc2c(c1)N(CCC1CCCCN1C)c1ccccc1S2 (stereo not drawn) [Thioridazine] | 0.0017 | 0.08 | 0.68 | 0.0010 |  |  |  |  |  | 
CN1CCN(CCCN2c3ccccc3Sc3ccc(C(F)(F)F)cc32)CC1 [Trifluoperazine] | 0.0007 | 0.09 | 0.71 | 0.0007 |  |  |  |  |  | 
Cc1ccc(-c2nc3ccc(C)cn3c2CC(=O)N(C)C)cc1 [Zolpidem] |  | 0.25 | 0.49 |  |  |  |  |  | 0.3500 | 0.2000
